# Columns and labels:
# Format in all cases: physicochemical
# [1] = Room temperature solubility of FDME in methanol; conditions: content of mother liquor
# Procedure: The combination of filtration with diatomaceous earth and crystallization was investigated for its effectiveness in purifying a crude composition of FDME, having weight percentages of individual compounds as described in Example 1. A 105 gram sample of this crude composition was ground and dissolved in 700 ml of methanol to provide a 15 wt-% stock solution of the crude composition, which was maintained at 55° C. in a water bath with shaking. A 300 gram portion of this stock solution was removed and diluted to 2 wt-% dissolved solids, or approximately the room temperature solubility, and filtered on a 2″ diatomaceous earth (DE) filter using a Buchner funnel. Following this DE filtration, the solution was concentrated back to 20 wt-% in a crystallizer using a vacuum pump to evaporate the methanol solvent. […] Stirring at 100 rpm was maintained during the cooling, and the particle size distribution was determined in real time. […] It was determined that a 2-hour residence time at 35° C. and subsequent cooling to 30° C. leads to significant nucleation. […]
# The solids from crystallization were emptied onto a Buchner funnel filter, and the crystals were sprayed with room temperature methanol. […] Following this single stage of crystallization, 67% of the FDME from the crude composition was recovered in the purified composition, which was determined to be 99.05 wt-% FDME and 0.86 wt-% FDMME. […]
# [2] = CIE 1976 (L*a*b*) colorimetry of stored purified FDME composition; conditions: after storage over 3 years in ambient air
# Procedure: In this regard, the color of the purified FDME composition was evaluated quantitatively by determining its chromaticity coordinates in the L*a*b* color space. This refers to a particular color space of different color systems of the CIE, or Commission Internationale de l'Echairage (International Commission of Illumination), which color systems were developed as a way to standardize color, or express color values numerically, and thereby remove the subjectivity of the human observer. The CIE 1976 (L*a*b*) color space is based on the opponent-colors theory of color vision, according to which two colors cannot be both green and red at the same time, nor blue and yellow at the same time. Therefore, single values can be used to describe the red/green and the yellow/blue attributes of a sample. In this regard, when a color is expressed using the L a*b* color space, the respective coordinates of L*, a*, and b* denote lightness, the red/green value, and the yellow/blue value, with these coordinates ranging from −100 to +100. For purposes of characterizing compositions described herein with respect to yellow color, the value of b* is particularly relevant. The assessment of the L*, a*, and b* coordinates of the purified FDME composition was performed using a commercially available colorimeter from Konica Minolta, model CM-5.
# (§1) To prepare a first sample, Sample #1, of the purified FDME composition for color analysis, a 0.597 gram portion of the composition was dissolved in 9.414 grams of a solvent mixture of 1:1 (v/v) acetonitrile/isopropanol, such that Sample #1 contained 5.96 wt-% of the dissolved composition. A second sample, Sample #2 was prepared by dissolving a 0.592 gram portion of the composition in 9.406 grams of this solvent, such that Sample #2 contained 5.92 wt-% of the dissolved composition. For each sample having a target concentration of 6 wt-% dissolved solids, two CIE 1976 (L*a*b*) colorimetry measurements and two APHA measurements were performed.
# [3] = Storage stability of purified FDME crystals in ambient air; conditions: 3.5 years
# Procedure: A 200 gram sample of a dried, impure mixture (crude composition comprising FDME) obtained from the esterification of FDCA with methanol to FDME was added to a 500 ml Erlenmeyer flask equipped with a PTFE magnetic stir bar. This solid composition was determined by UPLC-PDA to be 80 wt-% FDME, 18 wt-% FDMME, and 2 wt-% FDCA. Approximately 100 ml of methylene chloride was added to the flask, followed by 100 ml of 5 wt-% sodium bicarbonate. The biphasic solution was vigorously stirred for 30 minutes and transferred to a 1 liter separatory flask, which was used to remove the bottom organic phase. The top aqueous phase was extracted 2 times with additional extraction quantities, 30 ml each, of methylene chloride. These additional extraction quantities were combined with the organic phase, and the combined liquids were transferred to a 500 ml Wheaton bottle and placed in the freezer overnight. […] The retained crystals were dried with a stream of argon for 1 hour, determined to have a weight of 58.7 grams, and then stored in a 250 ml Wheaton bottle. A purity analysis of the crystals of the purified composition was carried out by quantitative ^1H NMR, indicating these to be 99.98 wt-% pure. The crystals were stored in ambient air and in a bottle on a tabletop.
# [4] = Solubility of FDME in various solvents (sonicated 15 minutes at 35° C.); conditions: for Solubility remarks / FDME solubility limits: 35° C.
# Procedure: An impure solid FDME sample, obtained from the esterification of FDCA with methanol, was determined to have 82.6 wt-% FDME (dimethyl ester), in addition to 10.4 wt-% of the monomethyl ester, FDMME, resulting from incomplete esterification. The sample also contained 0.35 wt-% of the FDCA starting compound and 0.58 wt-% of the aldehyde contaminant, FFME. In separate solubility studies with different solvents, various amounts of this sample were charged to a scintillation vial, and in each case 10 ml of solvent was added.
# [5] = APHA color (ASTM D1209) of stored purified FDME composition; conditions: Average of Samples #1 and #2, two measurements each; after storage over 3 years in ambient air
# Procedure: Another color measurement, which is referred to as APHA color, was also determined for the purified FDME composition according to ASTM D1209. APHA color is also known as the Hazen scale, as well as the platinum cobalt (Pt/Co) scale. APHA is a color standard named for the American Public Health Association that was originally intended to describe the color of wastewater, but its usage has expanded to include other applications. APHA color is a color scale sometimes referred to as a “yellowness index” that is used to assess the quality of liquids that are clear to yellowish in color.
# as §1
# [6] = Average of Samples #1 and #2, two measurements each
# [7] = single measurements, about 6 wt-% in 1:1 (v/v) acetonitrile/isopropanol
structure (smiles),measurement,setting,value
"COC(=O)c1ccc(C(=O)OC)o1 [FDME, 2,5-furandicarboxylic acid, dimethyl ester]",Room temperature solubility in methanol,[1],approximately 2 wt-%
same,L*,[2]; [6],99.43
same,a*,[2]; [6],−0.01
same,b*,[2]; [6],0.39
same,L*,[2]; [7],> 99
same,a*,[2]; [7],< 0.5
same,b*,[2]; [7],< 0.5
same,Purity on storage (stability),"[3]; crystals initially 99.98 wt-% pure, stored in ambient air in a bottle on a tabletop",maintained
same,"Appearance on storage (color stability, flow)",[3]; stored in ambient air,very little development of off-white color
same,"Solubility of crude compositions, summary in words","[4]; in methylene chloride, acetonitrile, N,N′-dimethylformamide, 1,4-dioxane, 1,1,2,2-tetrachloroethane, ethyl acetate, tetrahydrofuran, pyridine, acetone, dimethyl sulfoxide",favorable solubility
same,Solubility remarks,"[4]; solvent 1,1,2,2-tetrachloroethane",Very soluble
same,FDME solubility limits,"[4]; solvent 1,1,2,2-tetrachloroethane, impure FDME sample (82.6 wt-% FDME)",23-27 wt-%
same,FDME solubility limits,"[4]; solvent 1,3-Propanediol",<8 wt-%
same,Solubility remarks,"[4]; solvent 1,3-Propanediol",Insoluble
same,FDME solubility limits,"[4]; solvent 1,4-Dioxane",23-28 wt-%
same,Solubility remarks,"[4]; solvent 1,4-Dioxane",Very soluble
same,FDME solubility limits,[4]; solvent Acetone,12-20 wt-%
same,Solubility remarks,[4]; solvent Acetone,Soluble
same,FDME solubility limits,[4]; solvent Acetonitrile,>39 wt-%
same,Solubility remarks,[4]; solvent Acetonitrile,Exceptionally soluble
same,FDME solubility limits,[4]; solvent Dimethyl sulfoxide,9-13 wt-%
same,Solubility remarks,[4]; solvent Dimethyl sulfoxide,Soluble
same,FDME solubility limits,[4]; solvent Ethanol,<10 wt-%
same,Solubility remarks,[4]; solvent Ethanol,Insoluble
same,FDME solubility limits,[4]; solvent Ethyl Acetate,18-25 wt-%
same,Solubility remarks,[4]; solvent Ethyl Acetate,Very soluble
same,FDME solubility limits,[4]; solvent Ethylene Glycol,<8 wt-%
same,Solubility remarks,[4]; solvent Ethylene Glycol,Insoluble
same,FDME solubility limits,[4]; solvent Methanol,<11 wt-%
same,Solubility remarks,[4]; solvent Methanol,Insoluble
same,FDME solubility limits,[4]; solvent Methyl-t-butyl ether,<10 wt-%
same,Solubility remarks,[4]; solvent Methyl-t-butyl ether,Insoluble
same,FDME solubility limits,[4]; solvent Methylene Chloride,27-31 wt-%
same,Solubility remarks,[4]; solvent Methylene Chloride,Very soluble
same,FDME solubility limits,"[4]; solvent N,N′-dimethylformamide",30-35 wt-%
same,Solubility remarks,"[4]; solvent N,N′-dimethylformamide",Very soluble
same,FDME solubility limits,[4]; solvent Pyridine,17-23 wt-%
same,Solubility remarks,[4]; solvent Pyridine,Very soluble
same,FDME solubility limits,[4]; solvent THF,17-23 wt-%
same,Solubility remarks,[4]; solvent THF,Very soluble
same,FDME solubility limits,[4]; solvent Toluene,<10 wt-%
same,Solubility remarks,[4]; solvent Toluene,Insoluble
same,Hazen/APHA,[5],12

# — patent US12624013B2, “Purification of 2,5-furandicarboxylic acid, dimethyl ester and other esterified products” (Archer Daniels Midland Company, priority 2020, dated 2026)
